From patent publication US20040034003A1, “7-Hydroxy-16alpha-fluoro-5-androsten-17-ones and 7-hydroxy-16alpha-fluoro-5-androstan-17-ones and derivatives thereof” (priority 2002, published 2004)
“And” between values parts separate entries of the source, which are not always exact repeats. Equal values may be shown once.

Tested on: TPA-Induced DNA Synthesis in Mouse Epidermis
Experiment: TPA-induced DNA synthesis in mouse epidermis: [3H]thymidine incorporation and epidermal DNA content of a 2x2 cm2 skin section
Type: in vivo
Conditions: for μg DNA / corrected cpm / cpm/μg DNA / cpm: individual mouse
Protocol: Epidermal hypeplasia is determined by measuring the stimulation in [^3H] thymidine incorporation as well as epidermal DNA content of a 2×2 cm^2 section of skin twenty hours after TPA application.
In prior experiments, 16α-fluoro-5-androsten-17-one was administered in escalating doses by the oral subcutaneous, intraperitoneal, and buccal routes of administration, and the effect on TPA-stimulated epidermal [^3H] thymidine incorporation and epidermal DNA content was determined.
In this experiment, the effect of treating mice subcutaneously (s.c.) with suspensions of 7α-hydroxy-16α-flouro-5-androsten-17-one and suspensions of 16aflouro-5-androsten-17-one were investigated.
Variousl6α-flouro-5-androsten-17 one suspensions (Q) were prepared. The vehicle was 95% saline (0.9% NaCl) and 5% Emulphor. For the 5 mg/kg s.c. suspension, 25.3 mg was suspended in 10 mL of Emulphor-saline. The other suspensions were made by diluting the 5 mg/kg suspension. For the 2.5 mg/kg suspension, 1 mL of 5mg/kg s.c. suspension was diluted to a final volume of 2mL, for the 1 m/kg suspension 1 mL of the 5 mg/kg suspension was made to a total of 5 mL, while for the 0.125 mg/kg suspension, 0.5 mL of the 5 mg/kg suspension was made to a final volume of 20 mL. Magnetic stir bars were added to the suspensions which were kept on a magnetic stirrer.
7α-hydroxy-16α-flouro-5-androsten-17-one was prepared as described hereinabove. For the 5 mg/kg s.c. suspension, 16.3 mg was suspended in 6.5 mL of Emulphor-saline. The other suspensions were made by diluting the 5 mg/kg suspension. For the 2.5 mg/kg, 1 mL of 5 mg/kg suspension was diluted to a final volume of 2 mL, for the 1 mg/kg suspension 1 mL of the 5 mg/kg suspension was made to total 5 mL, while for the 0.125 mg/kg suspension, 0.5 mL of the 5 mg/kg suspension was made up to final volume of 20 mL. Magnetic stir bars were added to the suspensions and the suspensions were kept on a magnetic stirrer.
Female CD-1 mice were obtained from Charles River Laboratories, Wilmington, Mass. at 44-46 days of age. The mice were housed two to three per cage in plastic shoebox cages on Alphacel bedding with 12 hours of alternating light and dark in the CAF Animal Facility, 6th floor, Pharmacy Building. The mice had ad libitum access-to Purina 5015 chow and acidified tap water (pH≦2.6). The mice were allowed to acclimate to the facility for one week prior to use in an experiment. Three days after obtaining the mice, the mice were shaved and weighed. Only those mice showing no hair regrowth were used in the experiment.
Four days after the mice were shaved, they were treated as follows:
The mice were sacrificed 20 hours after treatment by an overdose of CO2. Twenty minutes prior to sacrifice, the mice were injected with 60 μCi of [^3H]thymidine (Amersham Batch 297). The mice were treated with a depilatory to remove any residual hair. A 2×2 cm^2 piece of skin was excised, placed in ice water for 30 seconds, then in 55° C. water for 30 seconds, then ice water again for 30 seconds. The epidermis was scrapped off using a scalpel and the scrapings were placed into ice cold 0.4N TCA (trichloroacetic acid). The scrapings were homogenized using a Tekmar Tissumizer (80% power for 30 seconds). The homogenates were centrifuged for 20 minutes at 3,000×g. The precipitates were washed 3× with 0.2N TCA, and 2× with absolute ethanol. The DNA in each sample was hydrolyzed with 0.5N TCA for 30 minuts at 90°. The tubes were centrifuged for 20 minutes at 3000×g. A 0.2 mL aliquot of each hydrolysate was counted in a LKB Rackbeta scintillation counter using Scintiverse II BD as the counting medium. DNA content was determined by the Burton diphenylamine assay.
Various suspensions were prepared of 16α-fluoro-5-androsten-17-one as follows. The vehicle was 95% saline (0.9% NaCl) and 5% Emulphor. For the 5 mg/kg s.c. suspension, 27.8 mg was suspended in 11.4 mL of Emulphor-saline. The other suspensions were made by diluting the 5 mg/kg suspension. […]

[1] = Example 4, 0.125 mg/kg s.c. 1 h before topical TPA 2 μg, 20 h, 0.125 mg/kg
[2] = Example 4, 1 mg/kg s.c. 1 h before topical TPA 2 μg, 20 h, 1 mg/kg
[3] = Example 4, 2.5 mg/kg s.c. 1 h before topical TPA 2 μg, 20 h, 2.5 mg/kg
[4] = Example 4, 5 mg/kg s.c. 1 h before topical TPA 2 μg, 20 h
[5] = Example 4, 5 mg/kg s.c. 1 h before topical TPA 2 μg, 20 h, 5 mg/kg
[6] = Example 5, 1 mg/kg s.c. 1 h before topical TPA 2 μg, 20 h, 1 mg/kg
[7] = Example 5, 1.75 mg/kg s.c. 1 h before topical TPA 2 μg, 20 h, 1.75 mg/kg
[8] = Example 5, 2.5 mg/kg s.c. 1 h before topical TPA 2 μg, 20 h, 2.5 mg/kg
[9] = Example 5, 3.75 mg/kg s.c. 1 h before topical TPA 2 μg, 20 h, 3.75 mg/kg
[10] = Example 5, 5 mg/kg s.c. 1 h before topical TPA 2 μg, 20 h, 5 mg/kg

C[C@]12CCCCC1=C[C@@H](O)[C@@H]1[C@@H]2CC[C@]2(C)C(=O)[C@H](F)C[C@@H]12 [7α-hydroxy-16α-fluoro-5-androsten-17-one, 16α-fluoro-7α-hydroxy-5-androsten-17-one]
μg DNA (Example 4, 0.125 mg/kg s.c. 1 h before topical TPA 2 μg, 20 h, Burton diphenylamine assay, 0.125 mg/kg): 16.8 µg and 15.4 µg
cpm/μg DNA (group average ±) (Example 4, 0.125 mg/kg s.c. 1 h before topical TPA 2 μg, 20 h): 335.1 ± 64.4 cpm/μg DNA
corrected cpm [1]: 6,394.0 cpm and 4,458.0 cpm
cpm/μg DNA [1]: 380.6 cpm/μg DNA and 289.5 cpm/μg DNA
cpm (Example 4, 0.125 mg/kg s.c. 1 h before topical TPA 2 μg, female CD-1 mice, 20 h after treatment, 0.125 mg/kg): 6,419.0 cpm and 4,483.0 cpm
cpm/μg DNA (group average ±) (Example 4, 1 mg/kg s.c. 1 h before topical TPA 2 μg, 20 h): 245.5 ± 44.1 cpm/μg DNA
corrected cpm [2]: 3,021.0 cpm and 3,623.0 cpm
cpm [2]: 3,046.0 cpm and 3,648.0 cpm
cpm/μg DNA [2]: 214.3 cpm/μg DNA and 276.6 cpm/μg DNA
μg DNA [2]: 14.1 µg and 13.1 µg
cpm/μg DNA (group average ±) (Example 4, 2.5 mg/kg s.c. 1 h before topical TPA 2 μg, 20 h): 350.2 ± 32.5 cpm/μg DNA
corrected cpm [3]: 4,478.0 cpm and 3,698.0 cpm
cpm [3]: 4,503.0 cpm and 3,723.0. cpm
cpm/μg DNA [3]: 373.2 cpm/μg DNA and 327.3 cpm/μg DNA
μg DNA [3]: 12.0 µg and 11.3 µg
cpm/μg DNA (group average ±) [4]: 360.3 ± 9.3 cpm/μg DNA
μg DNA [4]: 11.9 µg
corrected cpm [5]: 4,366.0 cpm and 4,209.0 cpm
cpm [5]: 4,391.0 cpm and 4,234.0 cpm
cpm/μg DNA [5]: 366.9 cpm/μg DNA and 353.7 cpm/μg DNA
effect on [3H]thymidine incorporation and epidermal DNA content (in words) (Example 4, s.c., dose range 0.125-5 mg/kg): inhibited [^3H] thymidine incorporation and epidermal DNA content over the dose range with no apparent nadir or over stimulation

C[C@]12CCCCC1=C[C@H](O)[C@@H]1[C@@H]2CC[C@]2(C)C(=O)[C@H](F)C[C@@H]12 [7β-hydroxy-16α-fluoro-5-androsten-17-one, 16α-fluoro-7β-hydroxy-5-androsten-17-one]
cpm/μg DNA (group average ±) (Example 5, 1 mg/kg s.c. 1 h before topical TPA 2 μg, 20 h): 283.4 ± 35.3 cpm/μg DNA
corrected cpm [6]: 4,501.0 cpm and 3,230.0 cpm
cpm/μg DNA [6]: 308.3 cpm/μg DNA and 258.4 cpm/μg DNA
μg DNA [6]: 14.6 µg and 12.5 µg
cpm (Example 5, 1 mg/kg s.c. 1 h before topical TPA 2 μg, female CD-1 mice, 20 h, 1 mg/kg): 4,527.0 cpm and 3,256.0 cpm
cpm/μg DNA (group average ±) (Example 5, 1.75 mg/kg s.c. 1 h before topical TPA 2 μg, 20 h): 156.6 ± 17.0 cpm/μg DNA
corrected cpm [7]: 1,445.0 cpm and 1,534.0 cpm
cpm [7]: 1,471.0 cpm and 1,560.0 cpm
cpm/μg DNA [7]: 144.5 cpm/μg DNA and 168.6 cpm/μg DNA
μg DNA [7]: 10.0 µg and 9.1 µg
cpm/μg DNA (group average ±) (Example 5, 2.5 mg/kg s.c. 1 h before topical TPA 2 μg, 20 h): 480.5 ± 117.6 cpm/μg DNA
corrected cpm [8]: 3,814.0 cpm and 5,861.0 cpm
cpm [8]: 3,840.0 cpm and 5,887.0 cpm
cpm/μg DNA [8]: 397.3 cpm/μg DNA and 563.6 cpm/μg DNA
μg DNA [8]: 9.6 µg and 10.4 µg
cpm/μg DNA (group average ±) (Example 5, 3.75 mg/kg s.c. 1 h before topical TPA 2 μg, 20 h): 485.4 ± 115.3 cpm/μg DNA
corrected cpm [9]: 4,706.0 cpm and 2,585.0 cpm
cpm [9]: 4,732.0 cpm and 2,611.0 cpm
cpm/μg DNA [9]: 567.0 cpm/μg DNA and 403.9 cpm/μg DNA
μg DNA [9]: 8.3 µg and 6.4 µg
cpm/μg DNA (group average ±) (Example 5, 5 mg/kg s.c. 1 h before topical TPA 2 μg, 20 h): 653.7 ± 61.0 cpm/μg DNA
corrected cpm [10]: 6,132.0 cpm and 3,908.0 cpm
cpm [10]: 6,158.0 cpm and 3,934.0 cpm
cpm/μg DNA [10]: 696.8 cpm/μg DNA and 610.6 cpm/μg DNA
μg DNA [10]: 8.8 µg and 6.4 µg
activity compared with 16α-fluoro-5-androsten-17-one (in words) (Example 5, s.c.): much more active
dose producing an overstimulation of [3H]thymidine incorporation (Example 5, s.c.): 2.5 mg/kg
